Some test systems named below: 786-0; HCT-116; HCT-15; HOP-92; HT-29; K562; LXFL 529; M19-MEL; Malme-3M; OVCAR-3; OVCAR-4; RPMI-8226; SK-MEL-2; U-251; UACC-62; HL-60.
What all share (assay): inhibition of tumour cell growth, NCI panel, 48 h

Molecules are shown by their SMILES.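 Method: 48-hour compound exposure of cells in 96-well plates, five concentrations, linear interpolation of endpoints. GI50: concentration for 50% inhibition of growth.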 The source made the active and inactive calls. No stated cut-off is given here; in the data, active = GI50 up to about 1.1 µM and inactive = higher.

For the molecule `COc1cc(OC)c(OC)cc1/C=N/NC(=O)N/N=C/c1cc(OC)c(OC)cc1OC`, the GI50 was > 100 µM (inactive) in the assay with 786-0; > 100 µM (inactive) in the assay with HCT-116; more than 100 µM with HCT-15; 49.9 µM (inactive) in the assay on HOP-92; > 100 µM (inactive) with HT-29; > 100 µM (inactive) in the assay with K562. The GI50 with LXFL 529, with M19-MEL, with Malme-3M, in the assay with OVCAR-3, in the assay with OVCAR-4 and with RPMI-8226 was > 100 µM (inactive) in each case. Besides, the GI50 with SK-MEL-2, in the assay with U-251 and in the assay on UACC-62 was > 100 µM (inactive) throughout.

In the case of `C[C@@]12CCCc3coc(c31)C(=O)c1cc3c(cc12)C(=O)C=CC3=O` [XESTOQUINONE], the GI50 with 786-0 is 17 µM (inactive); in the assay on HCT-15, 17.7 µM; in the assay on HL-60 it was 2.38 µM (inactive); in the assay with HOP-92, 4.52 µM (inactive); in the assay on HT-29, 22.3 µM (inactive); with K562, 3.61 µM (inactive). For the same molecule, the GI50 was 15 µM (inactive) in the assay on LXFL 529; 13.8 µM (inactive) in the assay with M19-MEL; 20.2 µM (inactive) in the assay on OVCAR-3; 15.5 µM (inactive) in the assay with OVCAR-4; 5.98 µM (inactive) in the assay with RPMI-8226; 15.4 µM (inactive) in the assay with SK-MEL-2. The GI50 in the assay with U-251 is 31.3 µM (inactive); with UACC-62, 17.4 µM (inactive).

Turning to `Oc1ccc(I)c2cccnc12`, the GI50 in the assay with 786-0 was 4.88 µM (inactive); in the assay on HCT-116, 4.71 µM (inactive); in the assay with HCT-15 it was 4.19 µM; in the assay on HL-60, 2.12 µM (inactive); in the assay on HOP-92, 15.9 µM (inactive); with HT-29, 38.2 µM (inactive). Moreover, the GI50 is 2.93 µM (inactive) in the assay with K562; 4.11 µM (inactive) in the assay with LXFL 529; 14.4 µM (inactive) in the assay with M19-MEL; 7.55 µM (inactive) in the assay with Malme-3M; 4.82 µM (inactive) in the assay on OVCAR-3; 26.4 µM (inactive) with OVCAR-4. Besides, the GI50 in the assay with RPMI-8226 is 2.89 µM (inactive); in the assay on SK-MEL-2 it was 11.9 µM (inactive); with U-251 it was 6.78 µM (inactive).

On to `Cc1c(Cl)cccc1NC(=O)C(=O)C(C(=O)c1ccccc1-c1ccccc1)C1OC(=O)c2ccccc21` (stereo not drawn), for which the GI50 is 16.6 µM (inactive) with 786-0; 12.5 µM (inactive) with HCT-116; 16.8 µM (inactive) with HL-60; 15.2 µM (inactive) with HOP-92; 33.1 µM (inactive) in the assay with HT-29; 27.9 µM (inactive) with K562. Also, the GI50 in the assay on LXFL 529 was 14 µM (inactive); in the assay on M19-MEL it was 15.1 µM (inactive); in the assay on Malme-3M it was 12.7 µM (inactive); in the assay with OVCAR-3, 16 µM (inactive); with RPMI-8226 it was 13.8 µM (inactive); in the assay on SK-MEL-2 it was 16.1 µM (inactive). In addition, the GI50 was 13.5 µM (inactive) in the assay on U-251 and 17.9 µM (inactive) with UACC-62.

On to `CCCN(CCCC(NC(C)=O)C(=O)NCc1ccccc1)C(=O)N(C)N=O` (stereo not drawn), for which the GI50 was > 100 µM (inactive) with 786-0; > 100 µM (inactive) with HCT-116; more than 100 µM in the assay with HCT-15; > 100 µM (inactive) with HOP-92; > 100 µM (inactive) in the assay on HT-29; > 100 µM (inactive) in the assay on K562. The GI50 in the assay with LXFL 529, with M19-MEL, in the assay with Malme-3M, in the assay on OVCAR-3, in the assay on OVCAR-4 and with RPMI-8226 was > 100 µM (inactive) throughout. Besides, the GI50 with SK-MEL-2, in the assay with U-251 and in the assay with UACC-62 was > 100 µM (inactive) throughout.
